Measured values from paper PMC11150675, “Simultaneous determination of multiple components in rat plasma by UPLC-MS/MS for pharmacokinetic studies after oral administration of Pogostemon cablin extract” (Frontiers in Pharmacology, 2024).
Like-named read-outs stand apart in the source and are kept apart here.

Tests used:
[1] = PK study in rats after single oral administration of Pogostemon cablin (PC) extract, plasma analysed by UPLC-MS/MS; details: for detection in plasma after oral PC extract: no complete PK profile obtained; for shape of plasma concentration-time curve: Figure 2
Method: (§1) The 100 μL plasma sample was combined with 20 μL of ME, 20 μL of IS (500 ng/mL), and 2.5 μL of FA, followed by vortexing for 1 min. This mixture underwent extraction with 600 μL ACN through vortexing at room temperature for 3 min. Subsequent to centrifugation at 14,000 rpm for a period of 10 min, the resulting supernatant was moved to another tube and dried under a stream of nitrogen. The dried residue was dissolved in 100 μL ME-ACN (50:50 v/v), followed by vortexing for 5 min, and subsequent centrifugation at 14,000 rpm for 10 min. Finally, 20 μL of the supernatant was used for analysis.
(§2) A concentration of 0.5 g/mL of PC extract was obtained by dissolving in 0.5% CMC-Na aqueous solution. The PC suspension of the 4.0 g/kg dose was given to rats by single oral administration. […] Subsequently, the plasma collected underwent centrifugation at a speed of 7000 rpm for a duration of 10 min. It was then moved to clean tubes and kept at a temperature of −80°C.
(§3) Data in this study was presented as the mean ± standard deviation (SD). The MassHunter Workstation software (version B.09.00, Agilent, United States) was utilized for determining the plasma levels of the 15 analytes. Additionally, PK parameters were analyzed using DAS 3.0 Software (Medical College of Wannan, China).

[2] = rat, in vivo, po, 4 g/kg
Method: as §1, §2, §3

[3] = rat plasma, PC extract 4.0 g/kg oral
[4] = rat plasma, PC extract 4.0 g/kg single oral dose, n = 6

SMILES	AUC ([1]; male, rat, plasma, po, 4 g/kg)	AUC(0-inf) ([1]; male, rat, plasma, po, 4 g/kg)	Cmax ([1]; male, rat, plasma, po, 4 g/kg)	Tmax ([1]; male, rat, plasma, po, 4 g/kg)	half-life ([1]; male, rat, plasma, po, 4 g/kg)	also measured
COc1ccc(-c2cc(=O)c3c(O)cc(O)cc3o2)cc1 [Acacetin, acacetin]						detection in plasma after oral PC extract [1, 3]: only detected in the initial plasma samples
O=c1cc(-c2ccc(O)cc2)oc2cc(O[C@@H]3O[C@H](CO)[C@@H](O)[C@H](O)[C@H]3O)cc(O)c12 [Cosmosiin, cosmosiin]						T1/2z [2]: 3.7 ± 0.6 h
COc1ccc(-c2cc(=O)c3c(O)cc(O[C@@H]4O[C@H](CO)[C@@H](O)[C@H](O)[C@H]4O)cc3o2)cc1O [Diosmetin-7-O-β-D-glucopyranoside, diosmetin-7-O-β-D-glucopyranoside]						detection in plasma after oral PC extract [1, 3]: only detected in the initial plasma samples
O=c1c(O[C@@H]2O[C@H](CO)[C@H](O)[C@H](O)[C@H]2O)c(-c2ccc(O)c(O)c2)oc2cc(O)cc(O)c12 [Hyperoside, hyperoside]						detection in plasma after oral PC extract [1, 3]: only detected in the initial plasma samples
C[C@@H]1O[C@@H](O[C@@H]2[C@@H](O)[C@H](OCCc3ccc(O)c(O)c3)O[C@H](COC(=O)/C=C/c3ccc(O)c(O)c3)[C@H]2O)[C@H](O)[C@H](O)[C@H]1O [Isoacteoside, isoacteoside]	384 ± 93.8 ng·h/mL	384 ± 93.8 ng·h/mL	109 ± 41.5 ng/mL	0.5 ± 0.3 h	2.9 ± 0.3 h	
COc1cc(O)c2c(=O)c(O)c(-c3ccc(OC)c(O)c3)oc2c1 [Ombuin, ombuin]						AUC (0-tn) [1, 4]: 95.1 ± 28.1 µg·h/L; AUC (0-∞) [1, 4]: 95.4 ± 28.4 ng·h/mL; Cmax [1, 4]: 11.2 ± 1.5 ng/mL; T1/2z [1, 4]: 3.8 ± 1.8 h; Tmax [1, 4]: 0.6 ± 0.2 h
Cc1cc(O)c(C(=O)CCC(C)C)c(=O)o1 [Pogostone, pogostone]						concentration maximum (Cmax) [1, 3]: 37204.0 ± 10,901.0 ng/mL; AUC (0-tn) [1, 4]: 258294.0 ± 93,104.7 μg/L*h; AUC (0-∞) [1, 4]: 258320.9 ± 93120.6 ng·h/mL; Cmax [1, 4]: 37204.0 ± 10,901.0 μg/L; T1/2z [1, 4]: 0.8 ± 0.5 h; Tmax [1, 4]: 1.9 ± 1.3 h; area-under-the-curve (AUC) compared with other constituents ([1]; rat plasma, PC extract oral): significantly exceeded that of the other constituents
C[C@@H]1O[C@@H](O[C@@H]2[C@@H](O)[C@H](OCCc3ccc(O)c(O)c3)O[C@H](CO)[C@H]2OC(=O)/C=C/c2ccc(O)c(O)c2)[C@H](O)[C@H](O)[C@H]1O [Verbascoside, verbascoside]	1700 ± 394 ng·h/mL	1700 ± 394 ng·h/mL	554 ± 159 ng/mL	0.4 ± 0.3 h	2.6 ± 0.21 h	
O=c1cc(-c2ccc(O)cc2)oc2c([C@@H]3O[C@H](CO)[C@@H](O)[C@H](O)[C@H]3O)c(O)c([C@@H]3O[C@H](CO)[C@@H](O)[C@H](O)[C@H]3O)c(O)c12 [Vicenin-2, vicenin-2]						AUC (0-tn) [1, 4]: 968.0 ± 131.9 µg·h/L; AUC (0-∞) [1, 4]: 968.8 ± 132.9 ng·h/mL; Cmax [1, 4]: 249.4 ± 50.8 ng/mL; T1/2z [1, 4]: 1.2 ± 0.6 h; Tmax [1, 4]: 0.3 ± 0.1 h
O=c1cc(-c2ccc(O)cc2)oc2c([C@@H]3O[C@H](CO)[C@@H](O)[C@H](O)[C@H]3O)c(O)cc(O)c12 [Vitexin, vitexin]						detection in plasma after oral PC extract [1, 3]: only detected in the initial plasma samples

Further lines, with some results ahead:

AUC ([1]; male, rat, plasma, po, 4 g/kg)	AUC(0-inf) ([1]; male, rat, plasma, po, 4 g/kg)	Cmax ([1]; male, rat, plasma, po, 4 g/kg)	Tmax ([1]; male, rat, plasma, po, 4 g/kg)	half-life ([1]; male, rat, plasma, po, 4 g/kg)	SMILES	also measured
255 ± 65.5 ng·h/mL	255 ± 65.5 ng·h/mL	64.2 ± 15.8 ng/mL	0.3 ± 0.2 h	2.7 ± 0.6 h	O=c1cc(-c2ccc(O)cc2)oc2cc(O)cc(O)c12 [Apigenin, apigenin]	shape of plasma concentration-time curve ([1]; rat plasma, PC extract oral): double-peak phenomenon
243 ± 63.5 ng·h/mL	243 ± 63.5 ng·h/mL	47.8 ± 15.9 ng/mL	0.8 ± 0.2 h	2 ± 0.1 h	COc1cc(O)c2c(=O)c(OC)c(-c3ccc(O)c(OC)c3)oc2c1 [Pachypodol, pachypodol]	shape of plasma concentration-time curve ([1]; rat plasma, PC extract oral): double-peak phenomenon
92.2 ± 33 ng·h/mL	92.2 ± 33 ng·h/mL	33 ± 14.6 ng/mL	0.9 ± 0.6 h	1.5 ± 0.2 h	COc1cc(O)c2c(=O)c(OC)c(-c3ccc(OC)c(OC)c3)oc2c1 [Retusin, retusin]	
1310 ng·h/mL	1310 ng·h/mL	116 ± 36.8 ng/mL	1.4 ± 1.4 h	2.5 ± 0.1 h	COc1cc(C(=O)O)ccc1O [Vanillic acid, vanillic acid]	
